Experimental data as given in ChEMBL document CHEMBL1781959, “Synthesis and in vitro antitumor activity of substituted quinazoline and quinoxaline derivatives: search for anticancer agent” (Eur J Med Chem, 2011).

How the values were obtained:
Assay type in all cases: functional
NCI-H23 = test: Anticancer activity against human NCI-H23 cells assessed as cell growth promotion at 10^-5 M after 48 hrs by SRB assay relative to control
SN12C = test: Anticancer activity against human SN12C cells assessed as cell growth promotion at 10^-5 M after 48 hrs by SRB assay relative to control
HCT-15 = test: Anticancer activity against human HCT15 cells assessed as cell growth promotion at 10^-5 M after 48 hrs by SRB assay relative to control
OVCAR-8 = test: Anticancer activity against human OVCAR8 cells assessed as cell growth promotion at 10^-5 M after 48 hrs by SRB assay relative to control
SW-620 = test: Anticancer activity against human SW620 cells assessed as cell growth promotion at 10^-5 M after 48 hrs by SRB assay relative to control
EKVX = test: Anticancer activity against human EKVX cells assessed as cell growth promotion at 10^-5 M after 48 hrs by SRB assay relative to control
MCF7 = test: Anticancer activity against human MCF7 cells assessed as cell growth promotion at 10^-5 M after 48 hrs by SRB assay relative to control
SF-539 = test: Anticancer activity against human SF539 cells assessed as cell growth promotion at 10^-5 M after 48 hrs by SRB assay relative to control
SNB-19 = test: Anticancer activity against human SNB19 cells assessed as cell growth promotion at 10^-5 M after 48 hrs by SRB assay relative to control
RXF 393 = test: Anticancer activity against human RXF393 cells assessed as cell growth promotion at 10^-5 M after 48 hrs by SRB assay relative to control
HCC 2998 = test: Anticancer activity against human HCC2998 cells assessed as cell growth promotion at 10^-5 M after 48 hrs by SRB assay relative to control
PC-3 = test: Anticancer activity against human PC3 cells assessed as cell growth promotion at 10^-5 M after 48 hrs by SRB assay relative to control
SK-MEL-28 = test: Anticancer activity against human SK-MEL-28 cells assessed as cell growth promotion at 10^-5 M after 48 hrs by SRB assay relative to control
MOLT-4 = test: Anticancer activity against human MOLT4 cells assessed as cell growth promotion at 10^-5 M after 48 hrs by SRB assay relative to control
SF-268 = test: Anticancer activity against human SF268 cells assessed as cell growth promotion at 10^-5 M after 48 hrs by SRB assay relative to control
UO-31 = test: Anticancer activity against human UO31 cells assessed as cell growth promotion at 10^-5 M after 48 hrs by SRB assay relative to control
KM12 = test: Anticancer activity against human KM12 cells assessed as cell growth promotion at 10^-5 M after 48 hrs by SRB assay relative to control
NCI-H322M = test: Anticancer activity against human NCI-H322M cells assessed as cell growth promotion at 10^-5 M after 48 hrs by SRB assay relative to control
NCI-H460 = test: Anticancer activity against human NCI-H460 cells assessed as cell growth promotion at 10^-5 M after 48 hrs by SRB assay relative to control
HCT-116 = test: Anticancer activity against human HCT116 cells assessed as cell growth promotion at 10^-5 M after 48 hrs by SRB assay relative to control
OVCAR-5 = test: Anticancer activity against human OVCAR5 cells assessed as cell growth promotion at 10^-5 M after 48 hrs by SRB assay relative to control
ACHN = test: Anticancer activity against human ACHN cells assessed as cell growth promotion at 10^-5 M after 48 hrs by SRB assay relative to control
786-0 = test: Anticancer activity against human 786-0 cells assessed as cell growth promotion at 10^-5 M after 48 hrs by SRB assay relative to control
CCRF-CEM = test: Anticancer activity against human CCRF-CEM cells assessed as cell growth promotion at 10^-5 M after 48 hrs by SRB assay relative to control
NCI/ADR-RES = test: Anticancer activity against human NCI/ADR-RES cells assessed as cell growth promotion at 10^-5 M after 48 hrs by SRB assay relative to control
A549 = test: Anticancer activity against human A549 cells assessed as cell growth promotion at 10^-5 M after 48 hrs by SRB assay relative to control
K562 = test: Anticancer activity against human K562 cells assessed as cell growth promotion at 10^-5 M after 48 hrs by SRB assay relative to control
UACC-257 = test: Anticancer activity against human UACC257 cells assessed as cell growth promotion at 10^-5 M after 48 hrs by SRB assay relative to control
UACC-62 = test: Anticancer activity against human UACC62 cells assessed as cell growth promotion at 10^-5 M after 48 hrs by SRB assay relative to control
SK-MEL-5 = test: Anticancer activity against human SK-MEL-5 cells assessed as cell growth promotion at 10^-5 M after 48 hrs by SRB assay relative to control
SF-295 = test: Anticancer activity against human SF295 cells assessed as cell growth promotion at 10^-5 M after 48 hrs by SRB assay relative to control
M14 = test: Anticancer activity against human M14 cells assessed as cell growth promotion at 10^-5 M after 48 hrs by SRB assay relative to control
A498 = test: Anticancer activity against human A498 cells assessed as cell growth promotion at 10^-5 M after 48 hrs by SRB assay relative to control
[1] = Anticancer activity against human Hs 578T cells assessed as cell growth promotion at 10^-5 M after 48 hrs by SRB assay relative to control
Malme-3M = test: Anticancer activity against human MALME-3M cells assessed as cell growth promotion at 10^-5 M after 48 hrs by SRB assay relative to control
MDA-MB-435 = test: Anticancer activity against human MDA-MB-435 cells assessed as cell growth promotion at 10^-5 M after 48 hrs by SRB assay relative to control
MDA-MB-468 = test: Anticancer activity against human MDA-MB-468 cells assessed as cell growth promotion at 10^-5 M after 48 hrs by SRB assay relative to control
LOX IMVI = test: Anticancer activity against human LOXIMVI cells assessed as cell growth promotion at 10^-5 M after 48 hrs by SRB assay relative to control

| Structure (SMILES) | Activity (NCI-H23) | Activity (SN12C) | Activity (HCT-15) | Activity (OVCAR-8) | Activity (SW-620) | Activity (EKVX) | Activity (MCF7) | Activity (SF-539) | Activity (SNB-19) | Activity (RXF 393) | Activity (PC-3) | Activity (SK-MEL-28) | Activity (MOLT-4) | Activity (SF-268) | Activity (UO-31) | Activity (KM12) | Activity (NCI-H460) | Activity (HCT-116) | Activity (OVCAR-5) | Activity (ACHN) | other results |
| --- | --- | --- | --- | --- | --- | --- | --- | --- | --- | --- | --- | --- | --- | --- | --- | --- | --- | --- | --- | --- | --- |
| Oc1ccccc1/C=C/c1nc2ccccc2nc1SCc1nc2ccccc2[nH]1 | 76.93% | 78.21% | 74.29% | 75.12% | 93.22% | 60.4% | 51.8% | 97.28% | 76.6% | 87.29% | 63.9% | 95.95% | 57.51% | 81.66% | 49.71% | 77.92% | 80.34% | 65.39% | 86.09% | 69.99% | Activity (HCC 2998): 102%; Activity (NCI-H322M): 80.01%; Activity (786-0): 89.92%; Activity (CCRF-CEM): 41.14%; Activity (NCI/ADR-RES): 82.43%; Activity (A549): 77.16%; Activity (K562): 77.33%; Activity (UACC-257): 81.1%; Activity (UACC-62): 58.04%; Activity (SK-MEL-5): 68.43%; Activity (SF-295): 93.22%; Activity (M14): 70.2%; Activity (A498): 92.56%; Activity [1]: 48.8%; Activity (Malme-3M): 83.19%; Activity (MDA-MB-435): 81.04%; Activity (MDA-MB-468): 59.53%; Activity (LOX IMVI): 78.17% |
| Oc1ccc(/C=C/c2nc3ccccc3nc2SCc2nc3ccccc3[nH]2)cc1 | 102% | 94.78% | 96.67% | 100% | 95.64% | 92.68% | 89.91% | 111% | 97.81% | 106% | 96.98% | 102% | 75.47% | 91.53% | 85.96% | 98.91% | 95.51% | 89.77% | 102% | 93.62% | Activity (HCC 2998): 123%; Activity (786-0): 94.31%; Activity (CCRF-CEM): 77.99%; Activity (NCI/ADR-RES): 100%; Activity (A549): 85.66%; Activity (K562): 107%; Activity (UACC-257): 117%; Activity (UACC-62): 96.99%; Activity (SK-MEL-5): 95.26%; Activity (SF-295): 82.46%; Activity (M14): 100%; Activity (A498): 88.72%; Activity [1]: 110%; Activity (Malme-3M): 86.88%; Activity (MDA-MB-435): 96.11%; Activity (MDA-MB-468): 114%; Activity (LOX IMVI): 95.29% |
| N#Cc1ccc(/C=C/c2nc3ccccc3nc2SCc2nc3ccccc3[nH]2)cc1 | 105% | 94.09% | 114% | 103% | 98.13% | 99.04% | 101% | 125% | 100% | 107% | 103% | 88.08% | 88.59% | 109% | 86.51% | 104% | 104% | 88.47% | 104% | 100% | Activity (NCI-H322M): 120%; Activity (786-0): 90.69%; Activity (CCRF-CEM): 93.78%; Activity (NCI/ADR-RES): 103%; Activity (A549): 93.12%; Activity (K562): 99.2%; Activity (UACC-257): 113%; Activity (UACC-62): 100%; Activity (SK-MEL-5): 101%; Activity (SF-295): 127%; Activity (M14): 99.32%; Activity (A498): 105%; Activity [1]: 107%; Activity (Malme-3M): 90.35%; Activity (MDA-MB-435): 109%; Activity (MDA-MB-468): 104%; Activity (LOX IMVI): 100% |
